Measured values as given in PubChem BioAssay (NCI).
“And” between values parts separate entries of the source, which are not always exact repeats. Equal values may be shown once.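 Interpolation was linear, between the two tested concentrations surrounding the appropriate level; five concentrations were tested over 48 hours in 96-well plates. The concentration for 50% growth inhibition is given as GI50. TGI is the concentration that stops growth completely.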

Tests used:
Test in all cases: NCI tumour cell line growth inhibition, 48 h
DLD-1 colon = tested on: DLD-1 colon
DMS 114 small cell lung = tested on: DMS 114 small cell lung
KM20L2 colon = tested on: KM20L2 colon
LXFL 529 NSCLC = tested on: LXFL 529 NSCLC
RXF-631 renal = tested on: RXF-631 renal
SNB-78 CNS = tested on: SNB-78 CNS
XF 498 CNS = tested on: XF 498 CNS
HS 578T breast = tested on: HS 578T breast
MDA-N = tested on: MDA-N
P388/ADR leukemia = tested on: P388/ADR leukemia
SN12K1 renal = tested on: SN12K1 renal

CN1N=CSC12C(=O)N(c1ccccc1)C(=O)N2c1ccccc1 (configuration not stated)
TGI (DLD-1 colon): > 100 µM | TGI (DMS 114 small cell lung): > 100 µM | TGI (KM20L2 colon): > 100 µM | TGI (LXFL 529 NSCLC): > 100 µM | TGI (RXF-631 renal): > 100 µM | TGI (SNB-78 CNS): > 100 µM | TGI (XF 498 CNS): > 100 µM

COC(=O)/C(=N\NC(C)(C)C)C(C(=O)OC)C(=O)C(=O)Nc1cc(Cl)ccc1Cl (configuration not stated)
TGI (DLD-1 colon): > 100 µM | TGI (DMS 114 small cell lung): > 100 µM | TGI (KM20L2 colon): > 100 µM | TGI (LXFL 529 NSCLC): > 100 µM | TGI (RXF-631 renal): > 100 µM | TGI (SNB-78 CNS): > 100 µM | TGI (XF 498 CNS): > 100 µM

Cn1c(=O)c(N=Nc2c(=O)n(C)c(=O)n3c2[nH]c2ccccc23)c2[nH]c3ccccc3n2c1=O
TGI (DLD-1 colon): > 100 µM | TGI (DMS 114 small cell lung): > 100 µM | TGI (KM20L2 colon): > 100 µM | TGI (LXFL 529 NSCLC): > 100 µM | TGI (RXF-631 renal): > 100 µM | TGI (SNB-78 CNS): > 100 µM | TGI (XF 498 CNS): > 100 µM

CC1CC(C)CC(C)C(O)/C(C#N)=C/C=C/CC(C2CCCC2C(=O)O)OC(=O)CC(O)C(C)C1 (configuration not stated)
TGI (DLD-1 colon): 0.0819 µM | TGI (DMS 114 small cell lung): < 0.016 µM | GI50 (HS 578T breast): 39.5 nM | TGI (HS 578T breast): 223 nM and 67.3 nM | TGI (KM20L2 colon): 1.43 µM | TGI (LXFL 529 NSCLC): 0.0397 µM | GI50 (MDA-N): 18.8 nM | TGI (MDA-N): 64.6 nM | TGI (P388/ADR leukemia): < 14.3 nM | TGI (RXF-631 renal): 0.254 µM | TGI (SN12K1 renal): < 22.3 nM | TGI (SNB-78 CNS): 0.13 µM | TGI (XF 498 CNS): < 0.0264 µM

O=C(N/N=C/c1ccccc1O)N/N=C/c1ccccc1O
TGI (DLD-1 colon): > 100 µM | TGI (DMS 114 small cell lung): > 100 µM | TGI (KM20L2 colon): > 100 µM | TGI (LXFL 529 NSCLC): > 100 µM | TGI (RXF-631 renal): > 100 µM | TGI (SNB-78 CNS): > 100 µM | TGI (XF 498 CNS): > 100 µM

COC(=O)c1sc(C(=O)OC)c2c1CS(=O)C2
TGI (DLD-1 colon): > 100 µM | TGI (DMS 114 small cell lung): > 100 µM | TGI (KM20L2 colon): > 100 µM | TGI (LXFL 529 NSCLC): > 100 µM | TGI (RXF-631 renal): > 100 µM | TGI (SNB-78 CNS): > 100 µM | TGI (XF 498 CNS): > 100 µM

Cc1c(OC(C)C(=O)O)ccc2c(-c3ccccc3)cc(=O)oc12 (configuration not stated)
TGI (DLD-1 colon): > 100 µM | TGI (DMS 114 small cell lung): > 100 µM | TGI (KM20L2 colon): > 100 µM | TGI (LXFL 529 NSCLC): > 100 µM | TGI (RXF-631 renal): > 100 µM | TGI (SNB-78 CNS): > 100 µM | TGI (XF 498 CNS): > 100 µM

CCc1c(C#N)c(=O)[nH]c(=O)n1CCN1CCN(C(=O)NCCCCCCNC(=O)N2CCN(CCn3c(CC)c(C#N)c(=O)[nH]c3=O)CC2)CC1
TGI (DLD-1 colon): > 100 µM | TGI (DMS 114 small cell lung): > 100 µM | TGI (KM20L2 colon): > 100 µM | TGI (LXFL 529 NSCLC): > 100 µM | TGI (RXF-631 renal): > 100 µM | TGI (SNB-78 CNS): > 100 µM | TGI (XF 498 CNS): > 100 µM

CCOC(=O)NC(=O)c1cn(CCN2CCN(C(=O)NCCCCCCNC(=O)N3CCN(CCn4cc(C(=O)NC(=O)OCC)c(=O)[nH]c4=O)CC3)CC2)c(=O)[nH]c1=O
TGI (DMS 114 small cell lung): > 100 µM | TGI (KM20L2 colon): > 100 µM | TGI (LXFL 529 NSCLC): > 100 µM | TGI (RXF-631 renal): > 100 µM | TGI (SNB-78 CNS): > 100 µM | TGI (XF 498 CNS): > 100 µM

O=C1Nc2ccccc2C1(O)C/C(=N/O)c1ccc2ccccc2c1 (configuration not stated)
TGI (DLD-1 colon): > 100 µM | TGI (DMS 114 small cell lung): > 100 µM | TGI (KM20L2 colon): > 100 µM | TGI (LXFL 529 NSCLC): > 100 µM | TGI (RXF-631 renal): > 100 µM | TGI (SNB-78 CNS): > 100 µM | TGI (XF 498 CNS): > 100 µM

CC[O-].CC[O-].O=C([CH-]C(=O)c1ccccc1)CCCCCCCCC(=O)[CH-]C(=O)c1ccccc1.[Ti+4]
GI50 (DLD-1 colon): > 100 µM | TGI (DLD-1 colon): > 100 µM | GI50 (DMS 114 small cell lung): 80.6 µM | TGI (DMS 114 small cell lung): > 100 µM | GI50 (KM20L2 colon): > 100 µM | TGI (KM20L2 colon): > 100 µM | GI50 (LXFL 529 NSCLC): > 100 µM | TGI (LXFL 529 NSCLC): > 100 µM | GI50 (RXF-631 renal): > 100 µM | TGI (RXF-631 renal): > 100 µM | GI50 (SNB-78 CNS): > 100 µM | TGI (SNB-78 CNS): > 100 µM | GI50 (XF 498 CNS): > 100 µM | TGI (XF 498 CNS): > 100 µM

CCc1cccc(C)c1NS(=O)(=O)c1ccccc1
TGI (DLD-1 colon): > 100 µM | TGI (DMS 114 small cell lung): > 100 µM | TGI (KM20L2 colon): > 100 µM | TGI (LXFL 529 NSCLC): > 100 µM | TGI (RXF-631 renal): > 100 µM | TGI (SNB-78 CNS): > 100 µM | TGI (XF 498 CNS): > 100 µM

CCOC(=O)Cc1nc2ccc3c(c2[nH]c1=O)C(=O)c1ccccc1C3=O
TGI (DLD-1 colon): > 100 µM | TGI (DMS 114 small cell lung): > 100 µM | TGI (KM20L2 colon): > 100 µM | TGI (LXFL 529 NSCLC): > 100 µM | TGI (RXF-631 renal): > 100 µM | TGI (SNB-78 CNS): > 100 µM | TGI (XF 498 CNS): > 100 µM

c1cc[c]([Sn][c]2ccccc2)cc1
GI50 (DLD-1 colon): 15.4 µM | TGI (DLD-1 colon): 23.2 µM | GI50 (DMS 114 small cell lung): 32.7 µM | TGI (DMS 114 small cell lung): > 100 µM | GI50 (KM20L2 colon): 13.4 µM | TGI (KM20L2 colon): 18.8 µM | GI50 (LXFL 529 NSCLC): 16.8 µM | TGI (LXFL 529 NSCLC): 33.6 µM | GI50 (RXF-631 renal): 35.6 µM | TGI (RXF-631 renal): > 100 µM | GI50 (SNB-78 CNS): 39.8 µM | TGI (SNB-78 CNS): > 100 µM | GI50 (XF 498 CNS): 13.3 µM | TGI (XF 498 CNS): 17.9 µM
